# Source: patent US20160166627A1, “JOINT HEALTH COMPOSITIONS” (NESTEC S.A., priority 2013, published 2016)
# Structures can show the parent of a compound that is named as a salt.
# System: tumor necrosis factor α (TNF-α)
# Test: Serum TNF-α (inflammation marker) in ovariectomized rats, Rat TNF-α Platinum ELISA
# Type: in vivo, Sprague-Dawley rats
# Conditions: week 12 (end of study), vs OVX group, P<0.05
# Description: Ovariectomized (OVX) rats were used as a model to mimic osteoarthritis in healthy postmenopausal women. The effect of fructus corni on suppressing markers of cartilage degeneration, cross linked C-telopeptide of type 2 collagen (CTX-II) and inflammation, tumor necrosis factor α (TNF-α), was examined. Seven month-old female Sprague-Dawley rats were purchased from Beijing Weitong Lihua Laboratory Animal Centre. Surgery was performed by the research team in Shenyang Medical College. The rats were anaesthetized with Hypnorm™/Dormicum™ (1 part Hypnorm™+1 part Dormicum™+2 parts sterile water) given by injection at 0.2 ml/100 g body weight. After anaesthesia the animal was shaved on the back and the skin disinfected. A single incision in the skin was made above the spine, providing access to both ovaries. The muscles were cut to provide access and the ovaries were located and removed by cutting. The muscle on each side was closed with 1-2 stitches, and the skin was closed with 3-4 stitches. […] Rats in group F had free access to distilled water containing 0.5% glucosamine and the amount of water consumed was recorded for each rat. […] CTX-II was measured using the Serum Preclinical Cartilaps ELISA (Nordic Bioscience, Herlev, Denmark). […] Serum TNFα was measured using Rat TNF-α Platinum ELISA (eBioscience, USA) for the serum collected at the end of the study only. […] Data were expressed as means±SD. […]
smiles,measurement,value
"N[C@H]1C(O)O[C@H](CO)[C@@H](O)[C@@H]1O (stereo partly shown) [glucosamine, Glucosamine (GS) hydrochloride]","serum TNF-α concentration, increase induced by OVX",not observed
